For data set [1] the following is noted: cited from earlier work; for plasma rates: after administration of indicated Sibutramine therapeutic doses; for detection in urine: in vivo; for maximum plasma concentration [Tmax]: time after administration; for time for plasma concentrations to reach the stable state: during treatment; for effect of food on Tmax / effect of food on maximum concentrations: with food.

A short description of data set [2]: Example 2: randomized, double-blind, crossover study in patients with severe obesity and dyslipidemia. It counts as in vivo. Conditions: 4 weeks per treatment. As to the method:
A randomized, double-blind and crossover study was made in order to assess the reliability and effectiveness of the combination Sibutramine-Carnitine in patients with obesity and/or overweight suffering from dyslipidemia. 80 individuals were included in the study with a BMI higher than 35 kg/m^2 diagnosed with severe obesity, with alteration in the profile of lipids which total cholesterol figures was higher than 200 mg/dl.
Combined Sibutramine-carnitine was administered for 4 weeks and subsequently sibutramine alone and carnitine alone for another 4 weeks.

The test system of another data set is human plasmatic proteins. As to conditions: plasma; cited from earlier work.
Where [3] appears, read: single dose, within a 15-day period.

The values below come from patent EP1964555A1, “PHARMACEUTICAL CO[…] INHIBIT THE REUPTAKE OF NORADRENALINE, DOPAMINE AND SEROTONIN, WHICH ARE COMBINED WITH AN AMINO ACID FOR THE TREATMENT OF OBESITY AND OVERWEIGHT” (Espinosa Abdala, Leopoldo de Jesús, priority 2005, dated 2007).

Each structure is given as a SMILES string.

For the molecule `CC(C)CC(N(C)C)C1(c2ccc(Cl)cc2)CCC1` (stereo not shown) [Sibutramine], in data set [1], the plasma rates was 3%, the detection in urine entry is recorded as “not detected” and the “maximum plasma concentration [Tmax]” value is 1.2 h. In addition, in data set [1] (setting [3]), the “share expelled through urine” value is on record as 77%; the “share of dose expelled through urine and feces” value was “About 85%”. In addition, the “cholesterol and triglycerides levels” value in data set [2] (compared to the admission visit) is listed as “frank progressive reduction”. The “attachment to human plasmatic proteins” value in the data set on human plasmatic proteins is given as 97%.
In the case of `C[N+](C)(C)CC(O)CC(=O)[O-]` (stereo not shown) [carnitine, Carnitine], the “reduction of BMI” value in data set [2] (BMI higher than 35 kg/m^2, total cholesterol higher than 200 mg/dl, combination compared to sibutramine alone) is recorded as “no significant differences”.
As to `CNC(CC(C)C)C1(c2ccc(Cl)cc2)CCC1` (stereo not shown) [M1, mono-desmetilsibutramina], in data set [1], the plasma rates was 6%, the “time for plasma concentrations to reach the stable state” value is reported as “four”, the detection in urine result was “not detected” and the “maximum plasma concentration [Tmax]” value is about 3 h. Also, in data set [1], the “effect of food on Tmax” value was “delay” and the “effect of food on maximum concentrations” value is on record as “decreases”. Also, the “attachment to human plasmatic proteins” value with human plasmatic proteins is listed as 94%.
`CC(C)CC(N)C1(c2ccc(Cl)cc2)CCC1` (stereo not shown) [M2, di-desmetil-sibutramina]: in data set [1], the plasma rates is reported as 12%, the “time for plasma concentrations to reach the stable state” value is given as “four”, the detection in urine result is “not detected” and the “maximum plasma concentration [Tmax]” value is about 4 h. In data set [1], the “effect of food on Tmax” value is reported as “delay” and the “effect of food on maximum concentrations” value was “decreases”. The “attachment to human plasmatic proteins” value in the data set with human plasmatic proteins is listed as 94%.
